Experimental findings from patent US20120301468A1, “ANTI-MN ANTIBODIES AND METHODS OF USING SAME” (BAYER HEALTHCARE LLC, priority 2005, published 2012) are described below.

Data set [1] has as its system 13 other carbonic anhydrases. The experiment in a line: Binding to other carbonic anhydrases.
For the next data set, the system named is MN-expressing MaTu cells. The experiment in a line: FACS cell binding, MaTu cells. The data set is classed as cell-based, human.
For another data set, the system named is MN-negative DLD cells. Put plainly: FACS cell binding, DLD cells. The data set is classed as cell-based. On the procedure: Cells may be assayed for MN expression as a diagnostic tool. Adherent MN-expressing PC-3 mm2 cells and non-MN expressing DLD1 cells were detached from their flasks with 1:10 trypsin/Versene in PBS solution for 5 to 10 minutes. Cells were spun down (1000 rpm, 5 minutes), washed once with ice cold RPMI 10% FBS, and resuspended in ice-cold staining buffer (Ca^+ Mg^+-free PBS, 2% BSA, and 0.05% sodium azide) at 6×10^6 cells/ml. Primary antibody, human anti-MN IgG1, or control human IgG1 antibody at 25 μg/mL were incubated with 6×10^5 cells on ice for 1 hour. The unbound antibody was washed from the cells with the ice-cold staining buffer. The cells were fixed with 2% formaldehyde in PBS for 10 minutes, then washed twice with staining buffer. The cell pellet was resuspended in 100 μl ice cold staining buffer containing anti-human Alexa fluor 488 secondary antibody (final conc. 1:200, Molecular Probes/Invitrogen, Carlsbad, Calif.), and incubated on ice for 1 hour. The unbound antibody was washed from the cells two times with flow buffer (PBS containing 2% BSA), and the cells were resuspended in 1 mL flow buffer. FACS analysis of the resuspended cells was performed on a […] FACS Caliber instrument.
The MN antibody G250, a humanized IgG1 antibody, (Wilex) was used as a reference throughout the in vitro studies.

Data set [2] concerns MN-expressing cells (PC3 mm2). The experiment in a line: Antibody internalization (Cellomics), PC3 mm2. The format is cell-based, human.
The next data set deals with MN-negative cells (DLD1). Put plainly: Antibody internalization (Cellomics), DLD1. The data set is classed as cell-based.
The subject of data set [3] is PC3 mm2 human prostate tumor xenograft. The experiment in a line: PC3 mm2 subcutaneous xenograft model. The format is in vivo, NCr nu/nu mice. The settings on record: for animals showing responses: PC3MM2.
Description: The in vivo anti-tumor effect of 3ee9/MMAE was examined in 6 different human xenograft tumor models. These models were established through subcutaneous implantation of human tumor cells into female athymic NCr (nu/nu) mice (Taconic, N.Y.). […] PBS was used as a vehicle, and dosing solutions were prepared fresh daily. The dosing volume was 0.1 mL/10 g (10 mL/kg).
The length and width of each tumor were measured using an electronic caliper 2-3 times per week, and tumor weights (mg) were calculated based on the formula of [length (mm)×width (mm)^2]/2. […] Tumor growth inhibition (TGI) was calculated as (1-T/C)×100, where T=final tumor weights from a treated group after the last dose, and C=final tumor weights from the control group after the last dose. In addition, anti-tumor efficacy was measured as the incidence of responses (or responders or regressions) defined as tumors with ≦50% of their initial size. A minimum duration of 7 days is required for a response to be considered durable.
The anti-tumor activity of 3ee9/MMAE was next evaluated against human prostate (PC-3 mm2) and CRC (Colo-205) tumor xenografts. Female NCr nu/nu mice were implanted subcutaneously (s.c.) either with 5×10^6 PC3 mm2 or Colo-205 cells. Treatment was initiated when tumors were of an average size of approximately 125-150 mg. The general health of mice was monitored and recorded daily. Tumor dimensions and body weights were recorded twice a week starting with the first day of treatment.
In the PC3 mm2 and Colo-205 studies, 3ee9/MMAE was administered intravenously (i.v.) once every 4th day for a total of 3 injections (Q4Dx3) at doses of 1, 3, 10 and 30 mg/kg and 1.25, 2.5, 5 and 10 mg/kg, respectively.
Data set [4] concerns low MN-expressing MIAPaCa2 pancreatic xenograft. The experiment in a line: MIAPaCa2 xenograft model. The data set is classed as in vivo, mice. On the procedure:
(§1) To better understand the relationship between MN expression and antitumor efficacy, xenograft efficacy studies were conducted using a low MN-expressing pancreatic model, MIAPaCa2 and high MN-expressing huMN-MIAPaCa2 model. This latter line was derived by engineering the MIAPaCa2 line to stably express MN. […] 3ee9/MMAE dosed at 10 mg/kg only produced 50% TGI.

Data set [5] has as its system high MN-expressing huMN-MIAPaCa2 xenograft. Put plainly: huMN-MIAPaCa2 xenograft model. The format is in vivo, mice. The settings on record: for TGI: end of dosing. On the procedure: as §1
A further data set is described as follows: In vivo distribution. Also on record: species or system mice. The note with it: Table 4 profile. An excerpt: The Maestro™ in-vivo imaging system (CRI, Woburn, Mass.) with multi-spectral acquisition and analysis is designed to eliminate auto-fluorescence background. Mabs 3ee9 of BAY 79-4620, M75 (mouse monoclonal recognizing MN) and control human IgG, were conjugated with Alexa Fluor 750 (Invitrogen Cat# A20011) according to manufacturer's instructions. The ratio of Protein/AF750 (mol/mol) was 1/5.9 for 3ee9, 8.9 for human IgG, and 6.0 for M75.
Twelve days before the injection of each fluorescence-labeled antibody, Harlan Balb/C nudes were implanted with MIAPaCa-2 (low MN-expressing; 7.5×10^6 cells in 50% Matrigel) subcutaneously in the right flank, and huMN-MIAPaCa2 (MN transfected stable cell line; 5×10^6 cells in 50% Matrigel) subcutaneously in the left flank. 4 μg of conjugated antibody was injected on Day 0 (12 days post implant) to each animal. Imaging was done on Day 4, Day 5 and Day 10. Data were collected using animals that were anaesthetized (100 mg/kg ketamine/10 mg/kg xylazine, i.p.), and placed inside the imaging system. Multi-spectral image cubes (series of images) were acquired with images spaced every 10 nm throughout the spectral range of 680 to 950 nm, which covered the Near Infrared (NIR) range.
Each image was exposed for 5 seconds. False-colored images were synthesized from the spectral cube using Maestro software and scaled to visible brightness using ImagePro Plus 6.0. […]

As for “3ee9/MMAE: human anti-MN IgG1 antibody 3ee9 conjugated to Monomethylauristatin E (MMAE)”, in data set [1], the “binding to other carbonic anhydrases” value is “no detectable binding”. Further, the entries for the “cell binding by FACS” value with MN-expressing MaTu cells and in the data set with MN-negative DLD cells were “bind to MN-expressing MaTu cells” and “not MN-negative DLD cells”, respectively. Besides, the internalization result is “selectively internalized” in [2] and “not by MN-negative cells (DLD1)” in the data set on MN-negative cells (DLD1). For the same substance, the anti-tumor effects result in [3] (PC3-mm2 human prostate xenograft model) was “anti-tumor effects were seen”. Also, the animals showing responses is 20% in [3] (3 mg/kg); 100% in data set [3] (10 and 30 mg/kg i.v. Q4Dx3). For the same substance, the tolerability result in data set [3] (PC3 mm2 (1, 3, 10, 30 mg/kg) and Colo-205 (1.25, 2.5, 5, 10 mg/kg) studies, i.v. Q4Dx3) is recorded as “well tolerated at all doses evaluated”. Also, the “effect in inhibiting growth” value in [4] is “minimal effect”. Moreover, the TGI in [5] (2.5 mg/kg) is listed as 63%; in data set [5] (5 mg/kg) it was 82%; in [5] (10 mg/kg) it was 94%. In data set [5] (10 mg/kg), this substance gave a responses of 100%. The In vivo distribution result in the data set “In vivo distribution” is listed as “normal”.
